Activity calls are given as the source filed them.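 How the source made its calls: active means falling signal with an AC50 no greater than ten times the top valid dose tested for that sample; inconclusive means flat response with 30 to 70% inhibition, or poor fit; inactive means activity in the rising direction, and the rest.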
Legend:
[1] = system: V. harveyi MM32 AI-2 bioluminescence, 5 h; experiment: inhibitors of AI-2-induced luminescence in V. harveyi MM32, dose response, mechanism study for V. harveyi quorum sensing inhibitors, strain MM32 LuxS-null, dry powder, set 4 (AID 493116)
[2] = as above; conditions: V. harveyi MM32 AI-2 bioluminescence, 5 h; at 16 µM (top of the series)

Row | Compound | AC50 [1] | activity change, negative = inhibition [2]
1 | O=S(=O)(Nc1ccccn1)c1ccc(Oc2ccccc2)cc1 | 2.25 µM | –
2 | Cn1cnc(S(=O)(=O)Nc2ccccc2Cl)c1 | > 16 µM (inactive) | –
3 | CC(=O)Nc1ccccc1NS(=O)(=O)c1cn(C)cn1 | – | -2.94% (inactive)
4 | CCc1ccc(-c2ccc(C(=O)O)n2CC)cc1 | – | 1.73% (inactive)
5 | C=Cn1c(C(=O)O)ccc1-c1ccc(OC)cc1 | 6.14 µM | –
6 | CN(C)C(=O)c1ccccc1NS(=O)(=O)c1cn(C)cn1 | – | 0.78% (inactive)
7 | COc1ccccc1NS(=O)(=O)c1cn(C)cn1 | – | -4.54% (inactive)
8 | Cn1cnc(S(=O)(=O)Nc2ccccc2F)c1 | – | -0.646% (inactive)
9 | C=Cn1c(C(=O)O)ccc1-c1ccc(CC)cc1 | 2.34 µM | –
10 | O=S(=O)(Nc1cccnc1)c1ccc(Oc2ccccc2)cc1 | 0.538 µM | –
11 | Cn1cnc(S(=O)(=O)Nc2ccc(OC(F)(F)F)cc2)c1 | 2.39 µM | –
12 | CCc1ccc(-c2ccc(C(=O)O)n2C)cc1 | 2.84 µM | –
13 | O=C1C=C/C(=C/Br)O1 | 2.29 µM | –
14 | Cc1ccccc1NS(=O)(=O)c1cn(C)cn1 | > 16 µM (inactive) | –

From PubChem BioAssay AID493116 (Broad Institute, 2011)
